{"source": "patent EP4656642A1", "about": "“ESTROGEN RECEPTOR PROTEOLYSIS TARGETING CHIMERA COMPOUND AND USE THEREOF” (GAN & LEE PHARM CO., LTD, priority 2023, dated 2024)", "key": {"VCaP cells": {"tested_on": "VCaP cells", "assay": "Inhibition of proliferation of VCaP cells (WST-8, 168 hours)", "format": "cell-based", "settings": "VCaP cells, 168 hours, WST-8", "experimental": "Test Example 7 Inhibitory activity of the compounds disclosed in the present disclosure on the proliferation of VCaP cells\nVCaP cells (ATCC, CRL-2876) were cultured in DMEM (Gibco, 11995-065) complete medium containing 10% fetal bovine serum (Hyclone, SH30406.05). On the first day of the experiment, VCaP cells were inoculated in 96-well plates at a density of 15,000 cells/well using DMEM medium containing 10% fetal bovine serum, with 100µL of cell suspension per well, and placed in a cell culture incubator with 5% CO2 at 37°C overnight. […] The compound concentrations were prepared in complete DMEM medium and serially diluted 5-fold starting from 10 µM, resulting in a total of nine concentration points. Wells receiving 100 µL of DMEM medium containing 10% FBS only were used as blank controls. The plates were incubated at 37°C in a 5% CO2 incubator for 168 hours."}, "LNCAP FGC cells": {"tested_on": "LNCAP FGC cells", "assay": "Inhibition of LNCAP cell proliferation (WST-8, 96 hours)", "format": "cell-based", "settings": "LNCAP FGC cells, 96 hours, WST-8", "experimental": "Test Example 8 Inhibitory activity of the compounds disclosed in the present disclosure on LNCAP cell proliferation\nLNCAP FGC cells (ATCC, CLR-1740) were cultured in RPMI 1640 (ATCC, 30-2001) complete medium containing 10% fetal bovine serum (Hyclone, SH30406.05). On the first day of the experiment, LNCaP FGC cells were inoculated in 96-well plates at a density of 5,000 cells/well using RPMI 1640 medium containing 10% fetal bovine serum, with 100µL of cell suspension per well, and placed in a cell culture incubator with 5% CO2 at 37°C overnight. […] The compound concentrations were prepared in complete […] medium and serially diluted 5-fold starting from 10 µM, resulting in a total of nine concentration points. Wells receiving 100 µL of RPMI 1640 medium containing 10% FBS only were used as controls. The plates were incubated at 37°C in a 5% CO2 incubator for 96 hours."}}}
{"smiles": "COC1(CN2CCC3(CC2)COc2c3ccc3c2C(=O)N(C2CCC(=O)NC2=O)C3)CCN(c2ccc(C(=O)N[C@H]3CC[C@H](Oc4ccc(C#N)c(Cl)c4)CC3)nn2)CC1", "note": "(relative stereo) [2-263]", "values": [{"measurement": "IC50", "setting": "VCaP cells", "result": 0.011, "unit": "µM"}, {"measurement": "IC50", "setting": "LNCAP FGC cells", "result": 6.29, "unit": "µM"}]}
{"smiles": "N#Cc1ccc(O[C@H]2CC[C@H](NC(=O)c3ccc(N4CCC(F)(CN5CCC6(CC5)COc5c6ccc6c5C(=O)N(C5CCC(=O)NC5=O)C6)CC4)nn3)CC2)cc1Cl", "note": "(relative stereo) [2-315]", "values": [{"measurement": "IC50", "setting": "VCaP cells", "result": 0.007, "unit": "µM"}, {"measurement": "IC50", "setting": "LNCAP FGC cells", "result": 2.45, "unit": "µM"}]}
{"smiles": "COc1cc(O[C@H]2C(C)(C)[C@H](NC(=O)c3ccc(N4CCC(C)(CN5CCC6(CC5)COc5c6ccc6c5C(=O)N(C5CCC(=O)NC5=O)C6)CC4)cc3)C2(C)C)ccc1C#N", "note": "(relative stereo) [2-292]", "values": [{"measurement": "IC50", "setting": "VCaP cells", "result": 0.003, "unit": "µM"}, {"measurement": "IC50", "setting": "LNCAP FGC cells", "result": 68.5, "unit": "µM"}]}
{"smiles": "COc1cc(O[C@H]2C(C)(C)[C@H](NC(=O)c3ccc(N4CCC(CN5CCC6(CC5)COc5c6ccc6c5C(=O)N(C5CCC(=O)NC5=O)C6)CC4)cc3)C2(C)C)ccc1C#N", "note": "(relative stereo) [2-318]", "values": [{"measurement": "IC50", "setting": "VCaP cells", "result": 0.001, "unit": "µM"}, {"measurement": "IC50", "setting": "LNCAP FGC cells", "result": 9.85, "unit": "µM"}]}
{"smiles": "COc1cc(O[C@H]2CC[C@H](NC(=O)c3ccc(N4CCC(F)(CN5CCC6(CC5)COc5c6ccc6c5C(=O)N(C5CCC(=O)NC5=O)C6)CC4)nn3)CC2)ccc1C#N", "note": "(relative stereo) [2-316]", "values": [{"measurement": "IC50", "setting": "VCaP cells", "result": 0.002, "unit": "µM"}, {"measurement": "IC50", "setting": "LNCAP FGC cells", "result": 68.2, "unit": "µM"}]}
{"smiles": "CC1(CN2CCC3(CC2)COc2c3ccc3c2C(=O)N(C2CCC(=O)NC2=O)C3)CCN(c2ccc(C(=O)N[C@H]3CC[C@H](Oc4ccc(C#N)c(Cl)c4)CC3)nn2)CC1", "note": "(relative stereo) [2-262]", "values": [{"measurement": "IC50", "setting": "VCaP cells", "result": 0.011, "unit": "µM"}, {"measurement": "IC50", "setting": "LNCAP FGC cells", "result": 21.3, "unit": "µM"}]}
{"smiles": "COc1cc(O[C@H]2C(C)(C)[C@H](NC(=O)c3ccc(N4CCC(CN5CCC6(CC5)COc5c6ccc6c5C(=O)N(C5CCC(=O)NC5=O)C6)(OC)CC4)cc3)C2(C)C)ccc1C#N", "note": "(relative stereo) [2-293]", "values": [{"measurement": "IC50", "setting": "VCaP cells", "result": 0.005, "unit": "µM"}, {"measurement": "IC50", "setting": "LNCAP FGC cells", "result": 88.1, "unit": "µM"}]}
{"smiles": "COc1cc(O[C@H]2CC[C@H](NC(=O)c3ccc(N4CCC(C)(CN5CCC6(CC5)COc5c6ccc6c5C(=O)N(C5CCC(=O)NC5=O)C6)CC4)nn3)CC2)ccc1C#N", "note": "(relative stereo) [2-261]", "values": [{"measurement": "IC50", "setting": "VCaP cells", "result": 0.012, "unit": "µM"}, {"measurement": "IC50", "setting": "LNCAP FGC cells", "result": 49.1, "unit": "µM"}]}
{"smiles": "C[C@H]1CC2(CCN(c3ccc(N4CCC(CN5CCC6(CC5)COc5c6ccc6c5C(=O)N(C5CCC(=O)NC5=O)C6)CC4)cc3)CC2)CN1c1ccc(C#N)c(Cl)c1", "note": "(stereo partly drawn) [2-103]", "values": [{"measurement": "IC50", "setting": "VCaP cells", "result": 0.036, "unit": "µM"}, {"measurement": "IC50", "setting": "LNCAP FGC cells", "result": 0.85, "unit": "µM"}]}
